Assay results as given in the supplement of paper PMC10307832.

What was measured:
Assay in all cases: relative viability (nuclei count vs DMSO), 5 days (fraction); higher = more cells survive
LU99A = test system: LU99A
Procedure, shortened: (§1)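 Lung cancer cell lines were pin-tool dosed in 1536-well plates on the day after seeding, with either a lone drug or a fixed anchor-drug dose plus five library-drug doses (not always all listed) in √10 steps. Nuclei were counted on 4× images after 5 days. Relative viability is the ratio of treated-well to vehicle-well nuclei counts, with each value a median of duplicate plates.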

ChaGo-K-1 = test system: ChaGo-K-1
Procedure, shortened: as §1

NCI-H661 = test system: NCI-H661
Procedure, shortened: as §1

NCI-H1944 = test system: NCI-H1944
Procedure, shortened: as §1

SK-MES-1 = test system: SK-MES-1
Procedure, shortened: as §1

NCI-H358 = test system: NCI-H358
Procedure, shortened: as §1

NCI-H322M = test system: NCI-H322M
Procedure, shortened: as §1

HCC-15 = test system: HCC-15
Procedure, shortened: as §1

LXF-289 = test system: LXF-289
Procedure, shortened: as §1

BEN = test system: BEN
Procedure, shortened: as §1

NCI-H2087 = test system: NCI-H2087
Procedure, shortened: as §1

NCI-H838 = test system: NCI-H838
Procedure, shortened: as §1

H3255 = test system: H3255
Procedure, shortened: as §1

NCI-H2342 = test system: NCI-H2342
Procedure, shortened: as §1

NCI-H650 = test system: NCI-H650
Procedure, shortened: as §1

LK-2 = test system: LK-2
Procedure, shortened: as §1

PC-3 [JPC-3] = test system: PC-3 [JPC-3]
Procedure, shortened: as §1

HCC-78 = test system: HCC-78
Procedure, shortened: as §1

NCI-H1651 = test system: NCI-H1651
Procedure, shortened: as §1

NCI-H1666 = test system: NCI-H1666
Procedure, shortened: as §1

UMC-11 = test system: UMC-11
Procedure, shortened: as §1

LCLC-97TM1 = test system: LCLC-97TM1
Procedure, shortened: as §1

LC-2-ad = test system: LC-2-ad
Procedure, shortened: as §1

NCI-H596 = test system: NCI-H596
Procedure, shortened: as §1

`Clc1ccc(Nc2nnc(Cc3ccncc3)c3ccccc23)cc1` [Vatalanib] + Nc1nc2[nH]cc(CCc3ccc(C(=O)N[C@@H](CCC(=O)O)C(=O)O)cc3)c2c(=O)[nH]1 [Pemetrexed] (partner 0.2 µM) showed a relative viability (LU99A; first compound 0.04 µM) of 0.182, a relative viability (LU99A; first compound 0.1265 µM) of 0.162 and a relative viability (LU99A; first compound 0.4 µM) of 0.17. The relative viability (LU99A; first compound 1.265 µM) was 0.189, the relative viability (LU99A; first compound 4 µM) was 0.162 and the relative viability (ChaGo-K-1; first compound 0.04 µM) was 0.263. For the same compound, the relative viability (ChaGo-K-1; first compound 0.1265 µM) was 0.294, the relative viability (ChaGo-K-1; first compound 0.4 µM) was 0.265 and the relative viability (ChaGo-K-1; first compound 1.265 µM) was 0.258. It also gave a relative viability (ChaGo-K-1; first compound 4 µM) of 0.26, a relative viability (NCI-H661; first compound 0.04 µM) of 0.868 and a relative viability (NCI-H661; first compound 0.1265 µM) of 0.906. For the same compound, the relative viability (NCI-H661; first compound 0.4 µM) was 0.996, the relative viability (NCI-H661; first compound 1.265 µM) was 0.905 and the relative viability (NCI-H661; first compound 4 µM) was 0.936. For the same compound, the relative viability (NCI-H1944; first compound 0.04 µM) was 0.544, the relative viability (NCI-H1944; first compound 0.1265 µM) was 0.669 and the relative viability (NCI-H1944; first compound 0.4 µM) was 0.63. For the same compound, the relative viability (NCI-H1944; first compound 1.265 µM) was 0.583, the relative viability (NCI-H1944; first compound 4 µM) was 0.558 and the relative viability (SK-MES-1; first compound 0.04 µM) was 0.905. The relative viability (SK-MES-1; first compound 0.1265 µM) was 0.925, the relative viability (SK-MES-1; first compound 0.4 µM) was 1.05 and the relative viability (SK-MES-1; first compound 1.265 µM) was 0.912. For the same compound, the relative viability (SK-MES-1; first compound 4 µM) was 0.787, the relative viability (NCI-H358; first compound 0.04 µM) was 0.158 and the relative viability (NCI-H358; first compound 0.1265 µM) was 0.149. It also gave a relative viability (NCI-H358; first compound 0.4 µM) of 0.16, a relative viability (NCI-H358; first compound 1.265 µM) of 0.181 and a relative viability (NCI-H358; first compound 4 µM) of 0.157. It also gave a relative viability (NCI-H322M; first compound 0.04 µM) of 0.609, a relative viability (NCI-H322M; first compound 0.1265 µM) of 0.656 and a relative viability (NCI-H322M; first compound 0.4 µM) of 0.678. The relative viability (NCI-H322M; first compound 4 µM) was 0.572, the relative viability (HCC-15; first compound 0.04 µM) was 0.234 and the relative viability (HCC-15; first compound 0.1265 µM) was 0.218. For the same compound, the relative viability (HCC-15; first compound 0.4 µM) was 0.225, the relative viability (HCC-15; first compound 1.265 µM) was 0.235 and the relative viability (HCC-15; first compound 4 µM) was 0.219. For the same compound, the relative viability (LXF-289; first compound 0.04 µM) was 0.887, the relative viability (LXF-289; first compound 0.1265 µM) was 0.879 and the relative viability (LXF-289; first compound 0.4 µM) was 0.955. The relative viability (LXF-289; first compound 1.265 µM) was 0.908, the relative viability (LXF-289; first compound 4 µM) was 0.822 and the relative viability (BEN; first compound 0.04 µM) was 0.662. For the same compound, the relative viability (BEN; first compound 0.1265 µM) was 0.659, the relative viability (BEN; first compound 0.4 µM) was 0.443 and the relative viability (BEN; first compound 1.265 µM) was 0.681. For the same compound, the relative viability (BEN; first compound 4 µM) was 0.743, the relative viability (NCI-H2087; first compound 0.04 µM) was 0.666 and the relative viability (NCI-H2087; first compound 0.1265 µM) was 0.659. For the same compound, the relative viability (NCI-H2087; first compound 0.4 µM) was 0.685, the relative viability (NCI-H2087; first compound 1.265 µM) was 0.64 and the relative viability (NCI-H2087; first compound 4 µM) was 0.682. The relative viability (NCI-H838; first compound 0.04 µM) was 0.243, the relative viability (NCI-H838; first compound 0.1265 µM) was 0.226 and the relative viability (NCI-H838; first compound 0.4 µM) was 0.261. The relative viability (NCI-H838; first compound 1.265 µM) was 0.239, the relative viability (NCI-H838; first compound 4 µM) was 0.239 and the relative viability (H3255; first compound 0.04 µM) was 0.543. It also gave a relative viability (H3255; first compound 0.1265 µM) of 0.536, a relative viability (H3255; first compound 0.4 µM) of 0.529 and a relative viability (H3255; first compound 1.265 µM) of 0.512. For the same compound, the relative viability (H3255; first compound 4 µM) was 0.523, the relative viability (NCI-H2342; first compound 0.04 µM) was 0.726 and the relative viability (NCI-H2342; first compound 0.1265 µM) was 0.701. For the same compound, the relative viability (NCI-H2342; first compound 0.4 µM) was 0.669, the relative viability (NCI-H2342; first compound 1.265 µM) was 0.769 and the relative viability (NCI-H2342; first compound 4 µM) was 0.773. It also gave a relative viability (NCI-H650; first compound 0.04 µM) of 0.931, a relative viability (NCI-H650; first compound 0.1265 µM) of 0.833 and a relative viability (NCI-H650; first compound 0.4 µM) of 1.03. It also gave a relative viability (NCI-H650; first compound 1.265 µM) of 0.885, a relative viability (NCI-H650; first compound 4 µM) of 0.996 and a relative viability (LK-2; first compound 0.04 µM) of 0.241. The relative viability (LK-2; first compound 0.1265 µM) was 0.252, the relative viability (LK-2; first compound 0.4 µM) was 0.319 and the relative viability (LK-2; first compound 1.265 µM) was 0.235. It also gave a relative viability (LK-2; first compound 4 µM) of 0.207, a relative viability (PC-3 [JPC-3]; first compound 0.04 µM) of 1.02 and a relative viability (PC-3 [JPC-3]; first compound 0.1265 µM) of 0.943. The relative viability (PC-3 [JPC-3]; first compound 0.4 µM) was 0.803, the relative viability (PC-3 [JPC-3]; first compound 1.265 µM) was 0.456 and the relative viability (PC-3 [JPC-3]; first compound 4 µM) was 0.964. For the same compound, the relative viability (HCC-78; first compound 0.04 µM) was 0.924, the relative viability (HCC-78; first compound 0.1265 µM) was 0.981 and the relative viability (HCC-78; first compound 0.4 µM) was 0.881. For the same compound, the relative viability (HCC-78; first compound 1.265 µM) was 0.947, the relative viability (HCC-78; first compound 4 µM) was 0.906 and the relative viability (NCI-H1651; first compound 0.04 µM) was 0.512. The relative viability (NCI-H1651; first compound 0.1265 µM) was 0.558, the relative viability (NCI-H1651; first compound 0.4 µM) was 0.496 and the relative viability (NCI-H1651; first compound 1.265 µM) was 0.543. The relative viability (NCI-H1651; first compound 4 µM) was 0.526, the relative viability (NCI-H1666; first compound 0.04 µM) was 0.845 and the relative viability (NCI-H1666; first compound 0.1265 µM) was 0.844. For the same compound, the relative viability (NCI-H1666; first compound 0.4 µM) was 0.843, the relative viability (NCI-H1666; first compound 1.265 µM) was 0.799 and the relative viability (NCI-H1666; first compound 4 µM) was 0.901. The relative viability (UMC-11; first compound 0.04 µM) was 0.849, the relative viability (UMC-11; first compound 0.1265 µM) was 0.808 and the relative viability (UMC-11; first compound 0.4 µM) was 0.844. For the same compound, the relative viability (UMC-11; first compound 1.265 µM) was 0.791, the relative viability (UMC-11; first compound 4 µM) was 0.794 and the relative viability (LCLC-97TM1; first compound 0.04 µM) was 0.2. The relative viability (LCLC-97TM1; first compound 0.1265 µM) was 0.177, the relative viability (LCLC-97TM1; first compound 0.4 µM) was 0.177 and the relative viability (LCLC-97TM1; first compound 1.265 µM) was 0.149. It also gave a relative viability (LCLC-97TM1; first compound 4 µM) of 0.172, a relative viability (LC-2-ad; first compound 0.04 µM) of 0.267 and a relative viability (LC-2-ad; first compound 0.1265 µM) of 0.27. It also gave a relative viability (LC-2-ad; first compound 0.4 µM) of 0.275, a relative viability (LC-2-ad; first compound 1.265 µM) of 0.267 and a relative viability (LC-2-ad; first compound 4 µM) of 0.288. For the same compound, the relative viability (NCI-H596; first compound 0.04 µM) was 0.482, the relative viability (NCI-H596; first compound 0.1265 µM) was 0.488 and the relative viability (NCI-H596; first compound 0.4 µM) was 0.524. The relative viability (NCI-H596; first compound 1.265 µM) was 0.514 and the relative viability (NCI-H596; first compound 4 µM) was 0.47.
